Source: US8969325B2, “TRPV1 antagonists” (AbbVie Inc., priority 2011, dated 2015)

Assays:
human TRPV1 [1] = target: T1, human TRPV1 (Homo sapiens (Human), UniProt Q8NER1); assay: Acid Activation Assay (pH 5.0, intracellular Ca2+, FLIPR); assay type: cell-based; details: percentage of the maximal pH 5.0-induced response remaining; recombinant HEK293 hTRPV1 cells; maximum concentration tested 37.5 μM
Procedure: Dulbecco's modified Eagle's medium (DMEM) with 4.5 m g/mL D-glucose, fetal bovine serum, L-glutamine, and 2-morpholinoethanesulfonic acid (MES) were purchased from Sigma-Aldrich Co. (St. Louis, Mo.). Dulbecco's phosphate-buffered saline (DPBS) with Ca^2+, Mg^2+, and 1 mg/mL D-glucose (pH 7.4), Geneticin®, 0.25% trypsin-1 mM EDTA, and penicillin-streptomycin were purchased from Invitrogen Corp. (Carlsbad, Calif.). The FLIPR® Calcium 4 assay kit was purchased from Molecular Devices (Sunnyvale, Calif.).
The cDNA for human TRPV1 (hTRPV1) was isolated by reverse transcriptase-polymerase chain reaction (RT-PCR) from human small intestine poly A+ RNA supplied by Clontech (Palo Alto, Calif.) using primers designed surrounding the initiation and termination codons identical to the published sequences (Hayes et al. Pain 2000, 88, 205-215). The resulting cDNA PCR products were subcloned into pCIneo mammalian expression vector (Promega) and fully sequenced using fluorescent dye-terminator reagents (Prism, PerkinElmer Applied Biosystems Division) and a PerkinElmer Applied Biosystems Model 373 DNA sequencer or Model 310 genetic analyzer. Expression plasmids encoding the hTRPV1 cDNA were transfected into HEK293 cells using Lipofectamine®. Forty-eight hours after transfection, the neomycin-resistant cells were selected with growth medium containing 800 μg/mL Geneticin (Life Technologies, formerly Gibco BRL). Surviving individual colonies were isolated and screened for TRPV1 activity. Cells expressing recombinant TRPV1 were maintained at 37° C. in DMEM containing 4 mM L-glutamine, 300 μg/mL G418 (Calbiochem) and 10% fetal bovine serum under a humidified 5% CO2 atmosphere.
The functional activity of compounds at the TRPV1 receptor was determined by measurement of intracellular Ca^2+ levels ([Ca^2+]i) using the Fluorescence Imaging Plate Reader (FLIPR)TETRA®. All compounds were tested over a 12-point one-half-log concentration range with 37.5 μM being the maximum concentration tested. Compound stocks, 10 mM, were prepared in DMSO, and diluted serially across a 384-well plate using a Bravo BenchCel workstation (Agilent Technologies, Santa Clara, Calif.). On the day prior to the experiment, the recombinant HEK293 cells expressing human TRPV1 (hTRPV1) were removed from tissue culture flasks and plated in growth medium into black-walled clear-bottom 384-well Biocoat™ poly-D-lysine assay plates (BD Biosciences, Bedford, Mass.) using a Multidrop® dispenser (ThermoScientific, Waltham, Mass.). On the day of the experiment growth medium was removed, and the no-wash FLIPR® Calcium-4 dye (λEX=470-495 nm, λEM=515-575 nm) was added to each well using the Multidrop® dispenser. The plated cells were incubated for 90-120 min in the dark at 25° C. The test compounds dissolved in DMSO were then added to the plates using an Agilent Bravo workstation (Agilent Technologies Inc., Santa Clara, Calif.). Three minutes later, a pH 5.0 solution was added to each well. Reagents were delivered at a rate of 40 μL/sec, and the final assay volume was 80 μL. Acidic pH solutions were prepared by titration of DPBS/MES with 1 N HCl. The intensity of the fluorescence was captured and digitally transferred to an interfaced PC. The maximum peak measured for the concentration range tested was used to calculate the corresponding peak increase in fluorescence over baseline (relative fluorescence units) which was expressed as the percentage (max % remain) of the maximal pH 5.0-induced response.
Table 1 reports the percentage (max % remain) of the maximal pH 5.0-induced response measured for the compounds tested in the recombinant HEK293 cell assay. Most of the compounds tested inhibited calcium flux only partially following TRPV1 activation by the pH 5.0 solution.

human TRPV1 [2] = target: T1, human TRPV1; assay: Capsaicin Activation Assay (intracellular Ca2+, FLIPR); assay type: cell-based; details: recombinant HEK293 cells expressing hTRPV1, 50 nM capsaicin
Procedure: (Logan, Utah). Dulbecco's phosphate-buffered saline (D-PBS) (with 1 mg/mL glucose and 3.6 mg/l Na pyruvate, without phenol red), L-glutamine, hygromycin B, and Lipofectamine® were obtained from Life Technologies (Grand Island, N.Y.). G418 sulfate was obtained from Calbiochem-Novabiochem Corp. (San Diego, Calif.). […] (St. Louis, Mo.). […] The cDNA for human TRPV1 (hTRPV1) was isolated by reverse transcriptase-polymerase chain reaction (RT-PCR) from human small intestine poly A+ RNA supplied by Clontech (Palo Alto, Calif.) using primers designed surrounding the initiation and termination codons identical to the published sequences (Hayes et al. […] The resulting cDNA PCR products were subcloned into pCIneo mammalian expression vector (Promega) and fully sequenced using fluorescent dye-terminator reagents (Prism, PerkinElmer Applied Biosystems Division) and a PerkinElmer Applied Biosystems Model 373 DNA sequencer or Model 310 genetic analyzer. Expression plasmids encoding the hTRPV1 cDNA were transfected into HEK293 cells using Lipofectamine®. Forty-eight hours after transfection, the neomycin-resistant cells were selected with growth medium containing 800 μg/mL Geneticin (Life Technologies, formerly Gibco BRL). Surviving individual colonies were isolated and screened for TRPV1 activity. […] Compound stocks, 10 mM, were prepared in DMSO, and diluted serially across a 384-well plate using a Bravo BenchCel workstation (Agilent Technologies, Santa Clara, Calif.). […] On the day prior to the experiment, the recombinant HEK293 cells expressing human TRPV1 (hTRPV1) were removed from tissue culture flasks and plated in growth medium into black-walled clear-bottom 384-well Biocoat™ poly-D-lysine assay plates (BD Biosciences, Bedford, Mass.) using a Multidrop® dispenser (ThermoScientific, Waltham, Mass.). […] Molecular Devices, Sunnyvale, Calif.) was added to each well using the Multidrop® dispenser. […] Fluorescence readings were made at 1 to 5 second intervals over the course of the experimental run.

T1 sequence (Q8NER1 whole entry): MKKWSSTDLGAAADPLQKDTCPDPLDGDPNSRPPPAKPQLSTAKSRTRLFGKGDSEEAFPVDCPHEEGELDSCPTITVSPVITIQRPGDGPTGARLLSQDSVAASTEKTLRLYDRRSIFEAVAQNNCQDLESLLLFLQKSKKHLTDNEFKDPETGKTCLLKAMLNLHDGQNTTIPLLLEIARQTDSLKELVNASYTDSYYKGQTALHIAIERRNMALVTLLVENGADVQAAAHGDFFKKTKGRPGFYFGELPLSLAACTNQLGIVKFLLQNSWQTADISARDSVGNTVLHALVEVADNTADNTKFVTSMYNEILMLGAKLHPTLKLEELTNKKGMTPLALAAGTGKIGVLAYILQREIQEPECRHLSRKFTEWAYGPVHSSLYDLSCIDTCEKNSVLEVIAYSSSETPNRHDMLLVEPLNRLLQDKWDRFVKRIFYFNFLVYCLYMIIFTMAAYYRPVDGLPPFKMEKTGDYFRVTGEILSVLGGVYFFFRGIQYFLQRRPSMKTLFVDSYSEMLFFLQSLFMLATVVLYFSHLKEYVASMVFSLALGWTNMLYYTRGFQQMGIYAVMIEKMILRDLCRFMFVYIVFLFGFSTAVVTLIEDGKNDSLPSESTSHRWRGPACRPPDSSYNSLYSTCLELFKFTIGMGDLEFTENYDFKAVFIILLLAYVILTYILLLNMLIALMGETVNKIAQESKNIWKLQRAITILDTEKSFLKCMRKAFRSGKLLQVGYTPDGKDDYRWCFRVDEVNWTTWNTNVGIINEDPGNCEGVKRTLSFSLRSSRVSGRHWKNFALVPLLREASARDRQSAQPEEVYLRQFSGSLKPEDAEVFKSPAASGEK

Compound	human TRPV1 H^+ (max % remain) (human TRPV1 [1])	IC50 (human TRPV1 [2])
CN1C(=O)NCc2c(NC(=O)N[C@@H]3C[C@@](C)(CF)Oc4cc(Cl)ccc43)cccc21 [Example 14, 1-[(2S,4R)-7-chloro-2-(fluoromethyl)-2-methyl-3,4-dihydro-2H-chromen-4-yl]-3-(1-methyl-2-oxo-1,2,3,4-tetrahydroquinazolin-5-yl)urea]	23%	0.063 µM
CN1C(=O)NCc2c(NC(=O)N[C@@H]3CC4(CCCC4)Oc4ccccc43)cccc21 [Example 15, 1-[(4R)-3,4-dihydrospiro[chromene-2,1′-cyclopentan]-4-yl]-3-(1-methyl-2-oxo-1,2,3,4-tetrahydroquinazolin-5-yl)urea]	40%	0.021 µM
CN1Cc2ccc(NC(=O)N[C@@H]3CC(C)(C)Oc4c3cccc4C(F)(F)F)cc2NC1=O [Example 16, 1-[(4R)-2,2-dimethyl-8-(trifluoromethyl)-3,4-dihydro-2H-chromen-4-yl]-3-(3-methyl-2-oxo-1,2,3,4-tetrahydroquinazolin-7-yl)urea]	53%	0.1 µM
Cn1c(=O)ccc2c(NC(=O)N[C@@H]3CC(CF)(CF)Oc4cc(Cl)ccc43)cccc21 [Example 20, 1-[(4R)-7-chloro-2,2-bis(fluoromethyl)-3,4-dihydro-2H-chromen-4-yl]-3-(1-methyl-2-oxo-1,2-dihydroquinolin-5-yl)urea]	34%	0.058 µM
Cn1c(=O)ccc2c(NC(=O)N[C@@H]3CC(CF)(CF)Oc4c3ccc(Cl)c4F)cccc21 [Example 21, 1-[(4R)-7-chloro-8-fluoro-2,2-bis(fluoromethyl)-3,4-dihydro-2H-chromen-4-yl]-3-(1-methyl-2-oxo-1,2-dihydroquinolin-5-yl)urea]	48%	0.026 µM
Cn1c(=O)ccc2c(NC(=O)N[C@@H]3CC(C)(C)Oc4c3ccc(F)c4Cl)cccc21 [Example 22, 1-[(4R)-8-chloro-7-fluoro-2,2-dimethyl-3,4-dihydro-2H-chromen-4-yl]-3-(1-methyl-2-oxo-1,2-dihydroquinolin-5-yl)urea]	47%	0.015 µM
Cn1c(=O)ccc2c(NC(=O)N[C@@H]3CC(C)(C)Oc4cc(Cl)ccc43)cccc21 [Example 23, 1-[(4R)-7-chloro-2,2-dimethyl-3,4-dihydro-2H-chromen-4-yl]-3-(1-methyl-2-oxo-1,2-dihydroquinolin-5-yl)urea]	50%	0.016 µM
Cn1c(=O)ccc2c(NC(=O)N[C@@H]3C[C@@](C)(C(F)(F)F)Oc4ccccc43)cccc21 [Example 25, 1-(1-methyl-2-oxo-1,2-dihydroquinolin-5-yl)-3-[(2S,4R)-2-methyl-2-(trifluoromethyl)-3,4-dihydro-2H-chromen-4-yl]urea]	65%	0.018 µM
Cn1c(=O)ccc2c(NC(=O)N[C@@H]3C[C@@](C)(C(F)F)Oc4ccccc43)cccc21 [Example 26, 1-[(2S,4R)-2-(difluoromethyl)-2-methyl-3,4-dihydro-2H-chromen-4-yl]-3-(1-methyl-2-oxo-1,2-dihydroquinolin-5-yl)urea]	54%	0.025 µM
O=C1COc2ccc(NC(=O)N[C@@H]3CC(CF)(CF)Oc4cc(Cl)ccc43)cc2N1 [Example 29, 1-[(4R)-7-chloro-2,2-bis(fluoromethyl)-3,4-dihydro-2H-chromen-4-yl]-3-(3-oxo-3,4-dihydro-2H-1,4-benzoxazin-6-yl)urea]	93%	0.1 µM
Cn1c(=O)ccc2c(NC(=O)N[C@@H]3C[C@](C)(CF)Oc4cc(Cl)ccc43)cccc21 [Example 40, 1-[(2R,4R)-7-chloro-2-(fluoromethyl)-2-methyl-3,4-dihydro-2H-chromen-4-yl]-3-(1-methyl-2-oxo-1,2-dihydroquinolin-5-yl)urea]	38%	0.022 µM
Cn1c(=O)ccc2c(NC(=O)N[C@@H]3C[C@@](C)(CF)Oc4cc(Cl)ccc43)cccc21 [Example 41, 1-[(2S,4R)-7-chloro-2-(fluoromethyl)-2-methyl-3,4-dihydro-2H-chromen-4-yl]-3-(1-methyl-2-oxo-1,2-dihydroquinolin-5-yl)urea]	74%	0.012 µM
CC1(C)C[C@@H](NC(=O)Nc2ccc3c(c2)NC(=O)N(CCO)C3)c2cccc(F)c2O1 [Example 42, 1-[(4R)-8-fluoro-2,2-dimethyl-3,4-dihydro-2H-chromen-4-yl]-3-[3-(2-hydroxyethyl)-2-oxo-1,2,3,4-tetrahydroquinazolin-7-yl]urea]	8%	0.51 µM
CC1(C)C[C@@H](NC(=O)Nc2ccc3c(c2)NC(=O)N(CCO)C3)c2ccc(F)cc2O1 [Example 43, 1-[(4R)-7-fluoro-2,2-dimethyl-3,4-dihydro-2H-chromen-4-yl]-3-[3-(2-hydroxyethyl)-2-oxo-1,2,3,4-tetrahydroquinazolin-7-yl]urea]	8%	0.094 µM
CCC1(CC)C[C@@H](NC(=O)Nc2ccc3c(c2)NC(=O)N(CCO)C3)c2cccc(F)c2O1 [Example 44, 1-[(4R)-2,2-diethyl-8-fluoro-3,4-dihydro-2H-chromen-4-yl]-3-[3-(2-hydroxyethyl)-2-oxo-1,2,3,4-tetrahydroquinazolin-7-yl]urea]	3%	0.065 µM
CCC1(CC)C[C@@H](NC(=O)Nc2ccc3c(c2)NC(=O)N(CCO)C3)c2ccccc2O1 [Example 45, 1-[(4R)-2,2-diethyl-3,4-dihydro-2H-chromen-4-yl]-3-[3-(2-hydroxyethyl)-2-oxo-1,2,3,4-tetrahydroquinazolin-7-yl]urea]	4%	0.043 µM
CCC1(CC)C[C@@H](NC(=O)Nc2ccc3c(c2)NC(=O)N(CCO)C3)c2ccc(C(F)(F)F)cc2O1 [Example 46, 1-[(4R)-2,2-diethyl-7-(trifluoromethyl)-3,4-dihydro-2H-chromen-4-yl]-3-[3-(2-hydroxyethyl)-2-oxo-1,2,3,4-tetrahydroquinazolin-7-yl]urea]	0%	0.367 µM
